The test system of one series is HaCaT cells. In words: Reactive oxygen species detection by FACS analysis (carboxy-H2DCFDA), Example 8. It counts as cell-based, human. The following applies: for Median corrected Average: FACS Analysis - Reactive Oxygen Species. The protocol: Intracellular ROS generation was measured using the detection agent 5-(and-6)-carboxy-2',7'- dichlorodihydrofluorescein diacetate (carboxy-H2DCFDA). […] More specifically, total intracellular ROS generation was studied using 5-(and-6)-carboxy-2',7'-dichlorodihydrofluorescein diacetate (carboxy-H2DCFDA).
Powdered sunscreens were dissolved in PBS (Sigma-Aldrich, UK) at a concentration in which they can dissolve fully (0-0.3%). They were then applied (200ul/well) to wells of a 24 well plate containing a washed monolayer of cells. Cells were then irradiated and the sunscreen removed and washed post treatment.
Irradiation was carried out on cells in monolayers at a distance of 3 cm (Solar Simulator) in cold PBS or PBS + sunscreen. The plate was always placed on a cooling platform at 4°C to avoid overheating of the cells. Unirradiated samples were maintained in PBS for the same time and temperature as irradiated samples.
Detection of reactive oxygen species was performed by FACS analysis using 5-(and 6-)-carboxy-2,',7'-dichlorodihydrofluorescein diacetate (Carboy-H2-DCFDA) (Invitrogen, Paisley, UK). Carboy-H2-DCFDA is a non-fluorescent dye that is activated into a fluorescent dye by ROS cleaving acetate groups from the molecule.
Cells were grown in a 12 well plate washed twice in PBS and irradiated +/- sunscreens. Control cells were unirradiated and positive controls were treated with 0.03% hydrogen peroxide for 5 minutes. Cells were washed again twice in PBS and then 1ML of Carboy-H2-DCFDA diluted in PBS to a concentration of 5uM was added to each well and were incubated for 2 minutes in a cell culture incubator in the dark (95% air, 5% CO2, 37°C, humidified). Each well was then washed twice with PBS to remove any excess dye.
Cells were then trypsinised, centrifuged at 400g for 4 minutes at 4°C and resuspended in 0.5ml of PBS + 0.1%w/v BSA and transferred to FACS tubes. Samples were then analysed with a Becton Dickson CANTO 3. The viable proportion of the cell population was quantified by the addition of 2.5ug/ml of propidium iodide immediately before the analysis.

For series [1], the system named is HaCaT keratinocytes. In words: CPD DNA lesion formation by IHC-IF. It counts as cell-based, human. As to conditions: 20J/cm^2 SSR; palythine 0.3-10%w/v; immediately post exposure; n=3; p<0.0001. Here is the method:
HaCat keratinocytes were irradiated with 20J/cm^2 of solar simulated UVR radiation with 0% (PBS alone), 0.3%, 4% or 10% of palythine. The relative formation of the CPD DNA lesion was measured by IHC-IF and the relative fluorescent intensity plotted. The data in figure 11 show protection by palythine against solar simulated UVR induced CPD formation by IHC-IF.
The radiation procedure was carried out as described above. Cells were washed, then fixed in 2 % (v/v) paraformaldehyde with 0.5 % (v/v) Triton X-100 in PBS for 30 mins at 4 °C. DNA was then denatured by incubation in 2 M HCl for 10 mins at 37 °C. Nonspecific sites were blocked using blocking buffer of 20 % (v/v) goat serum and 0.1 % (v/v) triton x-100 in PBS for 30 mins at room temperature. The primary antibody used was Anti-CPD (Clone TDM-2) (Cosmobio, Tokyo, Japan) at 1:1000 in blocking buffer for 1 hr at room temperature. Alexafluor 488 was diluted in blocking buffer (1:200 dilution) and incubated for 1 hr at room temperature and finally DAPI was added for 10 mins. Washing was carried out (3x5 mins) between each step.
All assays were performed on HaCat cells grown as a 70-80 % confluent monolayer in multiwell plates. They were washed three times in PBS and covered with palythine dissolved in PBS at differing concentrations (0, 0.1, 0.3 %, 4 % and 10 % w/v). […]

Series [2] relates to HaCaT keratinocytes. In words: Reactive oxygen species assay by FACS (carboxy-H2DCFDA), UV filtering and antioxidant effect, Example 16. It counts as cell-based, human. As to conditions: for ROS production compared to irradiated control: 20J/cm^2 of SSR, n=5, p<0.0001. Here is the method:
DNA damage was then measured using the comet assay and IHC-IF looking at the specific DNA lesions of cyclobutane pyrimidine dimers (CPD) and 8-oxoGua. A percentage reduction in general and specific DNA damage was then determined by comparing cells irradiated with and without sunscreen compositions. Antioxidant ability was detected using H2DCFDA, which fluoresces when reacting with ROS with the addition of palythine post exposure. SSR induced gene expression covering a range of different markers (inflammation, photoageing, oxidative damage) was assessed using qPCR. The ability of palythine to reduce this gene expression was then assessed.
All assays were performed on HaCat cells grown as a 70-80 % confluent monolayer in multiwell plates. They were washed three times in PBS and covered with palythine dissolved in PBS at differing concentrations (0, 0.1, 0.3 %, 4 % and 10 % w/v). The cells were then irradiated with either SSR or UVA radiation (5-20 J/cm^2 or 20 J/cm^2 respectively). After irradiation the palythine solution was removed and the cells washed a further three times and replaced in media or processed immediately depending on the experimental design.
HaCat cells were irradiated as above or for the anti-oxidant studies, cells were also incubated with palythine post irradiation. Cells were then incubated with 10uM carboxy-H2DCFDA (Invitrogen, UK) in PBS for 30 mins in the dark at 37 °C, 5 % CO2. Cells were washed in PBS, trypsinised for 10 minutes at 37 °C, centrifuged at 1200 rpm for 5 minutes at room temperature and resuspended in PBS and counterstained with DAPI for analysis by FACS. This was carried out with a Becton Dickinson FACSAria II. Cells were gated to only analyse live cells (DAPI negative) and the average mean green intensity per condition was then plotted from at least 10,000 measured events. Analysis was carried out using FlowJo 8.7 (USA).

A short description of series [3]: Photostability under increasing doses of solar simulated radiation (absorbance). It counts as physicochemical. The protocol: (§1) palythine was extracted from the red algae Palmaria decipiens using a methanol extraction (Confirmed by HPLC & LC-MS). The absorbance profile was determined and then the extract was exposed to increasing doses of solar simulated radiation (SSR) from a solar simulator (conforming to COLIPA standards). The absorbance profile was measured to determine photostability. Compositions according to the invention (in this example solutions of palythine) were prepared at different palythine concentrations (0.3% to 10%), as well as controls comprising 0% palythine, and HaCat keratinocytes were irradiated with SSR or UVA radiation through the solutions, which were placed on top of the cells.
(§2) Palythine was exposed to increasing doses of solar simulated radiation and absorbance measured. The absorbance spectrum of the palythine was measured between 280-400 nm using a Spectra Max 384 Plus (Molecular Devices; California, USA) spectrophotometer. Referring to figure 18, we show the photostability of palythine after exposure to increasing doses of solar simulated radiation. Palythine (0.0001% w/v palythine extracted from red algae Chondrus yendoi in PBS) was exposed to increasing doses of solar simulated radiation and the absorbance was measured to determine photostability.

The nature of another series: Absorbance profile. It counts as physicochemical. As to conditions: Example 14. The protocol:
as §1, §2

Molecules are shown by their SMILES.

In the case of `COC1=C(NCC(=O)O)CC(O)(CO)CC1=N` (stereo not shown) [palythine], the results for the “Median corrected Average” value in the series on HaCaT cells (0.1% palythine) and with HaCaT cells (0.3% palythine) were 36.35 and 33.9, respectively. Moreover, in the series with HaCaT cells (carboxy-H2DCFDA), the “total intracellular ROS generated after exposure to UVA and UVB” value was “significantly reduce”. For the same compound, the “CPD production compared to irradiated control” value in the series with HaCaT keratinocytes [1] is listed as “significant reduction”. Also, the “ROS production compared to irradiated control” value with HaCaT keratinocytes [2] (10% palythine post exposure (anti-oxidant)) and with HaCaT keratinocytes [2] (palythine 0.3-10%w/v added pre exposure) was “significant reduction” in each case. In addition, in the series on HaCaT keratinocytes [2] (Example 14, H2DCFDA, addition of palythine post exposure, p=<0.05), the “ROS production due to SSR irradiation (anti-oxidant properties)” value was “significant reduction”. In addition, the photostability entry is on record as “extremely photostable with negligible photodegradation” in series [3] (after 40SED of solar simulated radiation, 0.0001% w/v palythine from Chondrus yendoi in PBS, absorbance 280-400 nm) and “extremely photostable” in series [3] (after 60 standard erythema doses (SED) of SSR, palythine from Palmaria decipiens). The “absorbing in the UVB and UVA ranges” value in the series “Absorbance profile” is recorded as 290-350 nm.

Values taken from patent EP3324923B1, “COMPOSITIONS AND METHODS USING PALYTHINE” (King's College London, priority 2015, dated 2017).
